Results published in ChEMBL document CHEMBL3813660, “Kinetic and X-ray crystallographic investigations of substituted 2-thio-6-oxo-1,6-dihydropyrimidine-benzenesulfonamides acting as carbonic anhydrase inhibitors” (Bioorg Med Chem, 2016).

biological target: Carbonic anhydrase 12 (Homo sapiens, UniProt O43570); assay: Inhibition of human carbonic anhydrase 12 preincubated for 6 hrs at 4 degC measured for 10 to 100 secs by stopped-flow carbon dioxide hydration assay
Sequence (O43570 whole entry): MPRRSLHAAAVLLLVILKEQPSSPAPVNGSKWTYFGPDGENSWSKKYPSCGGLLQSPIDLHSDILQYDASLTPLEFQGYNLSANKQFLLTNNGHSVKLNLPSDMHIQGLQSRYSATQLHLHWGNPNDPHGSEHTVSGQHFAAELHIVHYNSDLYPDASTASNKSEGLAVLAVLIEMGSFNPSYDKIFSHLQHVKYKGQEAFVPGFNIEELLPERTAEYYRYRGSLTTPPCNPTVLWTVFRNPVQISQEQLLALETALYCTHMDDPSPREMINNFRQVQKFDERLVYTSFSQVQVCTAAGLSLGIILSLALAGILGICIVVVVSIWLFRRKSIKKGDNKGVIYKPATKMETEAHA

| Ki [nM] | Structure (SMILES) |
| --- | --- |
| 24 | CCC(Sc1nc(-c2cccc(OC)c2)c(C#N)c(=O)[nH]1)C(=O)Nc1ccc(S(N)(=O)=O)cc1 (stereo not given) |
| 9.2 | CC(Sc1nc(-c2ccc(Cl)cc2)c(C#N)c(=O)[nH]1)C(=O)Nc1ccc(S(N)(=O)=O)cc1 (stereo not given) |
| 9.1 | CC(Sc1nc(-c2ccc(Cl)c(F)c2)c(C#N)c(=O)[nH]1)C(=O)Nc1ccc(S(N)(=O)=O)cc1 (stereo not given) |

| Structure (SMILES) | Ki [nM] |
| --- | --- |
| CC(Sc1nc(-c2ccc(Cl)c(Cl)c2)c(C#N)c(=O)[nH]1)C(=O)Nc1ccc(S(N)(=O)=O)cc1 (stereo not given) | 7.8 |

biological target: Carbonic anhydrase 1 (Homo sapiens, UniProt P00915); assay: Inhibition of human carbonic anhydrase 1 preincubated for 6 hrs at 4 degC measured for 10 to 100 secs by stopped-flow carbon dioxide hydration assay
Sequence (P00915 whole entry): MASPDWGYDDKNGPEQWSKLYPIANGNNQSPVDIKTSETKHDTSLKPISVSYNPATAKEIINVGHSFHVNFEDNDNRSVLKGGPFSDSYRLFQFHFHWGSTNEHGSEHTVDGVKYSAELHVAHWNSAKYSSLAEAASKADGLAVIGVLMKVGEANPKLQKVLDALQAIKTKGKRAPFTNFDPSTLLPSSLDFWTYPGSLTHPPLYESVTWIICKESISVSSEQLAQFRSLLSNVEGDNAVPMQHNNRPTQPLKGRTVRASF

| Ki [nM] | Structure (SMILES) |
| --- | --- |
| 32 | CCC(Sc1nc(-c2cccc(OC)c2)c(C#N)c(=O)[nH]1)C(=O)Nc1ccc(S(N)(=O)=O)cc1 (stereo not given) |
| 83 | CC(Sc1nc(-c2ccc(Cl)cc2)c(C#N)c(=O)[nH]1)C(=O)Nc1ccc(S(N)(=O)=O)cc1 (stereo not given) |
| 34 | CC(Sc1nc(-c2ccc(Cl)c(F)c2)c(C#N)c(=O)[nH]1)C(=O)Nc1ccc(S(N)(=O)=O)cc1 (stereo not given) |

| Structure (SMILES) | Ki [nM] |
| --- | --- |
| CC(Sc1nc(-c2ccc(Cl)c(Cl)c2)c(C#N)c(=O)[nH]1)C(=O)Nc1ccc(S(N)(=O)=O)cc1 (stereo not given) | 48 |

biological target: Carbonic anhydrase 9 (Homo sapiens, UniProt Q16790); assay: Inhibition of human carbonic anhydrase 9 catalytic domain preincubated for 6 hrs at 4 degC measured for 10 to 100 secs by stopped-flow carbon dioxide hydration assay

| Ki [nM] | Structure (SMILES) |
| --- | --- |
| 24 | CCC(Sc1nc(-c2cccc(OC)c2)c(C#N)c(=O)[nH]1)C(=O)Nc1ccc(S(N)(=O)=O)cc1 (stereo not given) |
| 37 | CC(Sc1nc(-c2ccc(Cl)c(F)c2)c(C#N)c(=O)[nH]1)C(=O)Nc1ccc(S(N)(=O)=O)cc1 (stereo not given) |

| Structure (SMILES) | Ki [nM] |
| --- | --- |
| CC(Sc1nc(-c2ccc(Cl)c(Cl)c2)c(C#N)c(=O)[nH]1)C(=O)Nc1ccc(S(N)(=O)=O)cc1 (stereo not given) | 19 |

biological target: Carbonic anhydrase 2 (Homo sapiens, UniProt P00918); assay: Inhibition of human carbonic anhydrase 2 preincubated for 6 hrs at 4 degC measured for 10 to 100 secs by stopped-flow carbon dioxide hydration assay

| Ki [nM] | Structure (SMILES) |
| --- | --- |
| 6.4 | CCC(Sc1nc(-c2cccc(OC)c2)c(C#N)c(=O)[nH]1)C(=O)Nc1ccc(S(N)(=O)=O)cc1 (stereo not given) |
| 5 | CC(Sc1nc(-c2ccc(Cl)cc2)c(C#N)c(=O)[nH]1)C(=O)Nc1ccc(S(N)(=O)=O)cc1 (stereo not given) |
| 6.1 | CC(Sc1nc(-c2ccc(Cl)c(F)c2)c(C#N)c(=O)[nH]1)C(=O)Nc1ccc(S(N)(=O)=O)cc1 (stereo not given) |

| Structure (SMILES) | Ki [nM] |
| --- | --- |
| CC(Sc1nc(-c2ccc(Cl)c(Cl)c2)c(C#N)c(=O)[nH]1)C(=O)Nc1ccc(S(N)(=O)=O)cc1 (stereo not given) | 5.1 |
